≈ marks a conversion by molar mass, not a printed value. Like-named read-outs stand apart in the source and are kept apart here.
Assays:
[1] = Effect of pH on Compound 1 saline formulation; format: physicochemical
Protocol: 2000 mL solution of Compound 1 in 0.9% saline was prepared in the same manner as described above. The solution was equally divided into 6 portions. The pH values for the 6 portions were adjusted to 2.43, 3.00, 3.76, 4.51, 6.01 and 7.13 by adding dilute hydrochloric acid or sodium hydroxide. The appearance and content of solutions were analyzed and shown below.

[2] = Effect of iron content on Compound 1 saline formulation; format: physicochemical; details: 5 mg/mL in 0.9% saline, filtered, sterilized
Protocol: The solution was equally divided into 2 portions. To one portion was added 0.25 g activated charcoal and to the other was added 0.25 g activated charcoal and 0.1 g of iron powder. Each of the resulting mixture was stirred and filtered to a 100-mL polypropylene bottle.

[3] = Effect of temperature and time during sterilization on Compound 1 saline formulation; format: physicochemical; details: 0.9% saline
Protocol: To the solution was added 1.5 g of activated charcoal (0.05% g/mL). The mixture was stirred for 15 min and filtered. The filtrate was added to a serious of 100-mL polypropylene bottles. The filled bottles were capped, sealed, and divided into four groups (7 bottles/group).

[4] = Effect of lower temperature (−15° C.) on Compound 1 saline formulation; format: physicochemical; details: 5 mg/mL in 0.9% saline
[5] = Long-term and accelerated storage stability of Compound 1 saline formulation; format: physicochemical; details: 5 mg/mL (free base) in 0.9% saline
Protocol: At each sampling point (marked as “X” in the above table), samples were evaluated for their appearance, color, clarity, pH, UV absorption, assay and impurity.

Bacteroides species = assay: In vitro antibacterial activity, agar dilution; format: cell-based; details: anaerobic pathogens, clinical isolates
Protocol: (§1) Various bacterial species, such as Gram positive bacteria (e.g., Clostridium, Staphylococcus and Streptococcus), Gram negative bacteria (e.g., Moraxella, Haemophilus, Pseudomonas, Proteus, and Bacteriodes), anaerobic and atypical pathogens, were isolated from clinical samples. The antibacterial activity of Compound of Formula I against these bacterial species were determined using agar dilution assays described in the U.S. National Committee for Clinical Laboratory, M7-A6, 2003, and M11-A5, 2001.

Clostridium difficile = assay: In vitro antibacterial activity, agar dilution; format: cell-based; details: anaerobic pathogen, clinical isolates
Protocol: as §1

E. coli = assay: In vitro antibacterial activity, agar dilution; format: cell-based; details: clinical isolates
Protocol: as §1

[6] = test system: Gram positive, Gram negative, anaerobic, and atypical pathogens; assay: In vitro antibacterial activity, agar dilution; format: cell-based; details: clinical isolates
Protocol: as §1

Haemophilus influenzae = assay: In vitro antibacterial activity, agar dilution; format: cell-based; details: clinical isolates
Protocol: as §1

Klebsiella pneumoniae = assay: In vitro antibacterial activity, agar dilution; format: cell-based; details: clinical isolates
Protocol: as §1

Moraxella catarrhalis = assay: In vitro antibacterial activity, agar dilution; format: cell-based; details: clinical isolates
Protocol: as §1

Neisseria gonorrhoeae = assay: In vitro antibacterial activity, agar dilution; format: cell-based; details: clinical isolates
Protocol: as §1

Proteus mirabilis = assay: In vitro antibacterial activity, agar dilution; format: cell-based; details: clinical isolates
Protocol: as §1

Pseudomonas aeruginosa = assay: In vitro antibacterial activity, agar dilution; format: cell-based; details: clinical isolates
Protocol: as §1

S. pneumoniae = assay: In vitro antibacterial activity, agar dilution; format: cell-based
Protocol: as §1

enteric organisms = assay: In vitro antibacterial activity, agar dilution; format: cell-based; details: clinical isolates
Protocol: as §1

[7] = test system: methicillin-susceptible S. aureus (MSSA); assay: In vitro antibacterial activity, agar dilution; format: cell-based
Protocol: as §1

MRSA = assay: In vitro antibacterial activity, agar dilution; format: cell-based, S. aureus
Protocol: as §1

staphylococci = assay: In vitro antibacterial activity, agar dilution; format: cell-based, Staphylococcus
Protocol: as §1

streptococci = assay: In vitro antibacterial activity, agar dilution; format: cell-based, Streptococcus
Protocol: as §1

S. pneumoniae Stp 6301 = assay: In vivo antibacterial efficacy, mouse pulmonary infection model
Protocol: The in vivo antibacterial efficacy of Compound 1 was evaluated in a mouse model. Mice were anesthetized and infected intranasally with a lethal amount of S. pneumoniae Stp 6301. Twelve, eighteen, and twenty-four hours after the infection, a composition containing Compound 1 or moxifloxacin (as a positive control), 0.7% lactic acid, and 3% dextrose was administered subcutaneously to the mice at a total dose of 50, 25, 12.5, or 6.25 mg/kg. Half of the treated mice were euthanized four hours after the last treatment of Compound 1 or moxifloxacin and their blood and lung tissues were collected. The number of viable bacteria in the blood and lung tissues was then determined. The lung tissues were also subjected to histopathologic evaluation. The other half of the mice were monitored for 6 days and the number of the surviving mice was recorded.

[8] = 5 mg/mL in 5% dextrose
Protocol: The solution was filtered and transferred to in 100-mL polypropylene bottles. The bottles were capped, sealed, sterilized at 110° C. for 35 min, and stored at 60° C. oven. The solution in the bottles was analyzed on days 0, 5, and 10.

[9] = 5 mg/mL in 0.9% saline
Protocol: The solution was filtered and transferred to 100-mL polypropylene bottles. The bottles were capped, sealed, sterilized at 110° C. for 35 min, and stored at 60° C. oven. The solution in the bottles was analyzed on days 0, 5, and 10.

[10] = for Appearance: 5 mg/mL (free base) in 0.9% saline, light box 4500Lx+/−500Lx; for UV Absorption: compared with Standard; for UV Absorption / pH Value: intense light 4500Lx+/−500Lx
[11] = Effect of pH on Compound 1 saline formulation; format: physicochemical; details: 5 mg/mL in 0.9% saline
[12] = Effect of activated charcoal on Compound 1 saline formulation; details: 5 mg/mL in 0.9% NaCl
[13] = 5 mg/mL in 0.9% saline, pH 3.00
[14] = 5 mg/mL in 0.9% saline, pH 3.76 (no acid/base added)
[15] = 5 mg/mL in 0.9% saline, pH 6.01
[16] = activated charcoal and iron powder added
[17] = activated charcoal, no iron powder
[18] = sterile temperature N/A (control group)
[19] = 0 day, after sterilization (110° C., 35 min)
[20] = activated charcoal added 0.02% (g/mL)
[21] = activated charcoal added 0.05% (g/mL)
[22] = activated charcoal added 0.5% (g/mL)

Which results are given for `COc1c(N2C[C@@H](C)C[C@H](N)C2)ccc2c(=O)c(C(=O)O)cn(C3CC3)c12` [Compound 1, (3S,5S)-7-[3-amino-5-methyl-piperidinyl]-1-cyclopropyl-1,4-dihydro-8-methoxy-4-oxo-3-quinolinecarboxylic acid]?
pH Value ([1]; 5 mg/mL in 0.9% saline, no acid/base added): 3.76; Appearance [1, 13]: clear yellow solution; Comparative content of Compound 1 (%) [1, 13]: 94.87%; Appearance [1, 14]: clear yellow solution; Comparative content of Compound 1 (%) [1, 14]: 103.62%; Appearance [1, 15]: clear yellow solution; Comparative content of Compound 1 (%) [1, 15]: 99.63%; pH at which Compound 1 precipitated ([1]; 5 mg/mL in a saline solution): 6.6; Appearance [2, 16]: Reddish Brown; pH [2, 16]: 3.77; Appearance [2, 17]: Light yellow; pH [2, 17]: 3.78; Content (%) [3, 18]: 95.20%; Total Impurity (%) [3, 18]: 0.167%; pH Value [3, 18]: 3.86; Content (%) ([3]; sterilization 105° C./35 min): 96.44%; Total Impurity (%) ([3]; sterilization 105° C./35 min): 0.198%; pH Value ([3]; sterilization 105° C./35 min): 3.86; Content (%) ([3]; sterilization 110° C./35 min): 95.86%; Total Impurity (%) ([3]; sterilization 110° C./35 min): 0.240%; pH Value ([3]; sterilization 110° C./35 min): 3.86; Content (%) ([3]; sterilization 115° C./35 min): 95.98%; Total Impurity (%) ([3]; sterilization 115° C./35 min): 0.509%; pH Value ([3]; sterilization 115° C./35 min): 3.85; Appearance ([4]; 0 day at −15° C.): Clear yellow; Content ([4]; 0 day at −15° C.): 102.6; Total Impurity (%) ([4]; 0 day at −15° C.): 0.378%; pH Value ([4]; 0 day at −15° C.): 3.90; Appearance ([4]; 5 days at −15° C.): Clear yellow; Content ([4]; 5 days at −15° C.): 102.8; Total Impurity (%) ([4]; 5 days at −15° C.): 0.370%; pH Value ([4]; 5 days at −15° C.): 3.89; Appearance ([4]; 10 days at −15° C.): Clear yellow; Content ([4]; 10 days at −15° C.): 103.5; Total Impurity (%) ([4]; 10 days at −15° C.): 0.373%; pH Value ([4]; 10 days at −15° C.): 3.89; Appearance, compound content, pH and total impurity (summary in words) ([4]; −15° C. for 10 days): maintained the same; Changes in appearance, color, clarity, pH, UV absorption, assay and impurity ([5]; 25° C., 60% RH, 12 months): No significant changes; Changes in appearance, color, clarity, pH, UV absorption, assay and impurity ([5]; 40° C., 20% RH, 6 months): No significant changes; antibacterial activity (in words) (Bacteroides species): active; antibacterial activity (in words) (Clostridium difficile): active; MIC90 (E. coli): 0.12 µg/mL (≈ 0.323 µM); antibacterial activity (in words) [6]: potent, broad-spectrum antibacterial activity; MIC90 (Haemophilus influenzae): 0.12 µg/mL (≈ 0.323 µM); MIC90 (Klebsiella pneumoniae): 1 µg/mL (≈ 2.69 µM); MIC90 (Moraxella catarrhalis): 0.03 µg/mL (≈ 0.0808 µM); MIC90 (Neisseria gonorrhoeae): 0.06 µg/mL (≈ 0.162 µM); MIC90 (Proteus mirabilis): 0.5 µg/mL (≈ 1.35 µM); antibacterial activity (in words) (Pseudomonas aeruginosa): active against many isolates; MIC90 (S. pneumoniae; macrolide-resistant S. pneumoniae isolates): 0.12 µg/mL (≈ 0.323 µM); MIC90 (S. pneumoniae; penicillin-resistant S. pneumoniae isolates): 0.12 µg/mL (≈ 0.323 µM); MIC90 (S. pneumoniae; susceptible S. pneumoniae isolates): 0.12 µg/mL (≈ 0.323 µM); antibacterial activity (in words) (enteric organisms): active against most enteric organisms; MIC90 ([7]; ciprofloxacin-resistant MSSA clinical isolates): 0.5 µg/mL (≈ 1.35 µM); MIC90 ([7]; ciprofloxacin-sensitive MSSA clinical isolates): 0.06 µg/mL (≈ 0.162 µM); MIC90 (MRSA; ciprofloxacin-resistant MRSA clinical isolates): 1 µg/mL (≈ 2.69 µM); MIC90 (MRSA; ciprofloxacin-sensitive MRSA clinical isolates): 0.06 µg/mL (≈ 0.162 µM); MIC values (staphylococci; all staphylococci in this study): < 2 µg/mL; antibacterial activity (in words) (staphylococci; including methicillin-resistant S. aureus (MRSA)): especially active; MIC values (streptococci; all streptococci in this study): < 1 µg/mL; antibacterial activity (in words) (streptococci; including multi-resistant S. pneumoniae): especially active; survival (S. pneumoniae Stp 6301; lethal intranasal infection, s.c. total dose 50, 25, 12.5 or 6.25 mg/kg (all tested levels), monitored 6 days): 100%; viable bacteria in lung and blood (S. pneumoniae Stp 6301; mice infected intranasally, s.c. 12, 18, 24 h after infection, total dose 50, 25, 12.5 or 6.25 mg/kg (all levels), 4 h after last treatment, vs vehicle-treated controls): significantly reduced; efficacy compared with moxifloxacin (S. pneumoniae Stp 6301; same dosage levels, pulmonary infection model): more efficacious than moxifloxacin; Appearance [8, 19]: Clear yellow; Comparative content of Compound 1 (%) [8, 19]: 97.8%; pH [8, 19]: 3.88; Appearance ([8]; 0 day, before sterilization): Clear yellow; Comparative content of Compound 1 (%) ([8]; 0 day, before sterilization): 100.4%; pH ([8]; 0 day, before sterilization): 3.89; Appearance ([8]; 5 days at 60° C.): Dark yellow; Comparative content of Compound 1 (%) ([8]; 5 days at 60° C.): 96.0%; pH ([8]; 5 days at 60° C.): 4.03; Appearance ([8]; 10 days at 60° C.): Brown; Comparative content of Compound 1 (%) ([8]; 10 days at 60° C.): 94.2%; pH ([8]; 10 days at 60° C.): 4.08; Appearance ([9]; sterilized, 0 day): Clear yellow; Comparative content of Compound 1 (%) ([9]; sterilized, 0 day): 102.6%; Total Impurity (%) ([9]; sterilized, 0 day): 0.378%; pH Value ([9]; sterilized, 0 day): 3.90; Appearance ([9]; 5 days at 60° C.): Clear yellow; Comparative content of Compound 1 (%) ([9]; 5 days at 60° C.): 103.2%; Total Impurity (%) ([9]; 5 days at 60° C.): 0.375%; pH Value ([9]; 5 days at 60° C.): 3.88; Appearance ([9]; 10 days at 60° C.): Clear yellow; Comparative content of Compound 1 (%) ([9]; 10 days at 60° C.): 104.0%; Total Impurity (%) ([9]; 10 days at 60° C.): 0.410%; pH Value ([9]; 10 days at 60° C.): 3.88; Appearance ([10]; 0 day): Clear yellow; Appearance ([10]; 5 days): Clear yellow; Appearance ([10]; 10 days): Clear yellow; UV Absorption ([10]; 0 day): Consist with; UV Absorption ([10]; 5 days): Consist with; UV Absorption ([10]; 10 days): Consist with; pH Value ([10]; 0 day): 3.90; pH Value ([10]; 5 days): 3.89; pH Value ([10]; 10 days): 3.89; Appearance ([11]; pH 2.17): clear yellow solution; Comparative content of Compound 1 (%) ([11]; pH 2.17): 96.68%; Appearance ([11]; pH 4.50): clear yellow solution; Comparative content of Compound 1 (%) ([11]; pH 4.50): 101.14%; Appearance ([11]; pH 6.60): White precipitate; Comparative content of Compound 1 (%) ([12]; activated charcoal added 0): 109.0%; pH Value ([12]; activated charcoal added 0, boiled 25 min, filtered, sterilized): 3.96; Comparative content of Compound 1 (%) [12, 20]: 108.8%; pH Value [12, 20]: 3.88; Comparative content of Compound 1 (%) [12, 21]: 109.2%; pH Value [12, 21]: 3.88; Comparative content of Compound 1 (%) [12, 22]: 63.9%; pH Value [12, 22]: 3.80

— patent US8658183B2, “Antimicrobial parenteral formulation” (Taigen Biotechnology Company, Ltd., priority 2007, dated 2014)
